Reference: PMC10366102, “Dose escalation and expansion cohorts in patients with advanced breast cancer in a Phase I study of the CDK7-inhibitor samuraciclib” (Nature Communications, 2023)
Several values for one entry are separate records, joined by “and”; a condition that tells them apart may be missing. Identical values can stand only once.

How the values were obtained:
[1] = test system: HR+/HER2− advanced breast cancer; assay: Module 2A anti-tumor activity (RECIST V1.1, PFS, ctDNA subgroups); format: in vivo, human
Experimental: A single-arm, ascending-dose study was conducted in 2 cohorts to explore the recommended dose of samuraciclib and fulvestrant in HR+/HER2− advanced breast cancer patients who had previously received, and become resistant to, a CDK4/6 inhibitor. Female patients with histologically confirmed diagnosis of breast cancer, evidence of metastatic or locally advanced disease, and documented ER+ and/or PgR+ and HER2- tumor status treated with an AI in combination with a CDK4/6i before study entry were eligible. In each cohort the dose of fulvestrant was 500 mg every 28 ± 2 days, with an additional 500 mg dose given 14 ± 2 days after the first dose. Cohort 1 tested samuraciclib 240 mg OD continuous dosing. If the DLT stopping criteria were not met, Cohort 2 commenced enrollment at the Module 1A MTD. Patients underwent regular safety monitoring and 8-week scans reported using RECIST V1.1[32].
(§1) Per-protocol ctDNA samples were taken in Module 1B-1 at screening, C1D1, C2D1 and on D1 of alternating cycles from Cycle 3; in Module 2A at screening, C1D1 and at either C2D1 (240 mg) or C2D15 (360 mg) for mutational analysis[24],[33], (Supplementary Information). pPolII in lymphocytes and pPolII and pCDK1/2/3 in core needle tissue samples from patients recruited to the paired biopsy cohort were evaluated for on-target pharmacodynamic analyses. […]
(§2) treatment RECIST assessment. […]
(§3) number of patients in the particular analysis population. Duration of response (DoR) was defined as the time from documentation of tumor response to disease progression. Progression-free survival (PFS) was […]
(§4) cause, whichever occurred first. Efficacy results were summarized descriptively and Kaplan -Meier plots provided where appropriate. […]

CYP3A4 = test system: CYP3A4; parameters: method as in ref IB; details: human microsomes; ref IB; cited from earlier work
[2] = test system: phosphorylated RNA polymerase II (pPolII); assay: Flow cytometry of pPolII in lymphocytes (PBMC preparations); format: in vivo, human; details: Module 1A, across all doses, Cycle 2 Day 1
Experimental: as §1
with the sponsor. All investigator sites attended the SRC so that updates on toxicity and MTD could be communicated immediately. No more than 6 participants could be recruited at a non-tolerated dose […]
A summary of DLTs by cohort is provided in Supplementary Table 5. […]
Cells were analysed cells on a BD Fortessa X20, acquiring 100,000 events. […]
analysed using FlowJo (Treestar) version 10.4.2 to report the median fluorescence intensity of staining […]
although not reaching statistical significance due to the low number of patients. pPolII was determined by a flow cytometry assay on samples of peripheral blood mononuclear cell (PBMC) preparations […]
H-scores for pre-dose and on-study biopsies and summary statistics for the observed H-score when stained for pCDK1/2/3 and pPolII are shown in Supplementary Table 11. Significance was calculated using Student’s one-tailed paired t-test, where the alternative hypothesis was that on-study samples had […]

dog = test system: dog; parameters: method as in ref IB; details: oral 5, 15, and 20 mg/kg, ref IB; cited from earlier work
CYP3A5 = test system: CYP3A5; parameters: method as in ref IB; details: human microsomes; ref IB; cited from earlier work
advanced TNBC = assay: Module 1B-1 anti-tumor activity (RECIST V1.1); format: in vivo, human
Experimental: A single arm expansion was conducted to refine the safety, tolerability, PK, and pharmacodynamic profiles of samuraciclib monotherapy (360 mg OD) in male or female patients with advanced TNBC. Patients with histological, radiological or cytological confirmation of metastasis or locally advanced TNBC not considered to be appropriate for further standard treatment, who had received at least 1 line of systemic anti-cancer therapy, and measurable disease according to the RECIST V1.1, were eligible.
Patients underwent regular safety monitoring and 8-week scans reported using RECIST V1.1. […]
as §2, §3, §4

[3] = parameters: method as in ref IB; details: rat microsomes; ref IB; cited from earlier work
[4] = Module 2A N = 25, + fulvestrant
[5] = Module 2A, 25 evaluable, + fulvestrant
[6] = Module 2A, Liver metastases (N = 14)

## CC(C)c1cnn2c(NCc3ccccc3)cc(NC[C@H]3CCNC[C@@H]3O)nc12 [samuraciclib, Samuraciclib]
[1]; Module 2A
  Patients with PR persisting ≥24 weeks: […]
  Patients with SD persisting ≥24 weeks: […]
[1]; Module 2A ITT N = 31, + fulvestrant
  Progression-free survival, median (95% confidence interval): […]
[1]; [4]
  Best objective response: Complete response: 0 n (%)
[1]; Module 2A, 9/25, + fulvestrant
  Clinical benefit rate at 24 weeks, overall: […]
[1]; [5]
  Best RECIST response PR: […]
  Best RECIST response SD: […]
[1]; Module 2A, + fulvestrant
  Patients achieving PR: […]
[1]; [6]
  Clinical benefit rate at 24 weeks: […]
  Progression-free survival, median (95% CI): […]
[1]; Module 2A, No TP53 mutation (N = 19)
  Clinical benefit rate at 24 weeks: […]
[1]; Module 2A, No TP53 mutation (N = 20)
  Progression-free survival, median (95% CI): […]
[1]; Module 2A, No liver metastases (N = 11)
  Clinical benefit rate at 24 weeks: […]
[1]; Module 2A, No liver metastases (N = 17)
  Progression-free survival, median (95% CI): […]
[1]; Module 2A, TP53 mutation (N = 6)
  Clinical benefit rate at 24 weeks: 0 n (%)
[1]; Module 2A, TP53 mutation (N = 7)
  Progression-free survival, median (95% CI): […]
[1]; Module 2A, TP53 mutation group n = 6
  Clinical benefit rate at 24 weeks: 0%
[1]; Module 2A, liver metastases, 3/14
  Clinical benefit rate at 24 weeks: […]
[1]; Module 2A, no detectable TP53 mutation, 9/19
  Clinical benefit rate at 24 weeks: […]
[1]; Module 2A, no liver metastases, 6/11
  Clinical benefit rate at 24 weeks: […]
[1]; Module 2A, 95% CI: 0.04–0.59
  Hazard ratio for PFS, no detectable liver metastases: […]
[1]; Module 2A, 95% CI: 0.05-0.45
  Hazard ratio for PFS, absence of TP53 mutation: […]
CYP3A4
  IC50: […]
[2]
  Reduction of pPolII in lymphocytes: […]
dog
  Haemodynamic parameters, ECG parameters, body temperature: no effect
CYP3A5
  IC50: […]
Advanced TNBC; Module 1B-1, 360 mg OD
  Duration of response of the one PR: […]
Advanced TNBC; Module 1B-1, 4/20
  Clinical benefit rate at 24 weeks: […]
Advanced TNBC; Module 1B-1, 20 evaluable
  Best overall response progressive disease: […]
  Best overall response stable disease: […]
  Objective response rate: […]
Advanced TNBC; Module 1B-1 ITT N = 23
  Progression-free survival, median (95% confidence interval): […]
Advanced TNBC; Module 1B-1 N = 20
  Best objective response: Complete response: 0 n (%)
[3]
  Intrinsic clearance: high
